In this assay the test system is MV-4-11 cells. In words: Gene expression microarray analysis (Affymetrix PrimeView) and GSEA. It counts as cell-based, human. On the set-up: RFU PODN (11730768_x_at) / Fold change /veh PODN (11730768_x_at) / RFU LINC00158 (11744669_a_at) / Fold change /veh LINC00158 (11744669_a_at) / RFU DUSP10 (11751237_a_at) / Fold change /veh DUSP10 (11751237_a_at) / RFU ID3 (11757404_x_at) / Fold change /veh ID3 (11757404_x_at) / RFU PLEKHG5 (11737974_s_at) / Fold change /veh PLEKHG5 (11737974_s_at) / RFU LRRC4B (11730491_at) / Fold change /veh LRRC4B (11730491_at) / RFU GIMAP4 (11747438_a_at) / Fold change /veh GIMAP4 (11747438_a_at) / RFU KRT8 (11758183_x_at) / Fold change /veh KRT8 (11758183_x_at) / RFU CNN1 (11734310_a_at) / Fold change /veh CNN1 (11734310_a_at) / RFU VPS37D (11726825_at) / Fold change /veh VPS37D (11726825_at) / RFU C10orf10 (11716522_x_at) / Fold change /veh C10orf10 (11716522_x_at) / RFU KIR2DL2 /// KIR2DL4 /// KIR2DL5A /// KIR2DL5B /// KIR2DS1 /// KIR2DS2 /// KIR2DS3 /// KIR2DS4 /// KIR3DL3 /// KIR3DL3 /// KIR3DS1 (11738374_at) / Fold change /veh KIR2DL2 /// KIR2DL4 /// KIR2DL5A /// KIR2DL5B /// KIR2DS1 /// KIR2DS2 /// KIR2DS3 /// KIR2DS4 /// KIR3DL3 /// KIR3DL3 /// KIR3DS1 (11738374_at) / RFU C1QL1 (11718748_at) / Fold change /veh C1QL1 (11718748_at) / RFU TMPRSS4 (11747572_a_at) / Fold change /veh TMPRSS4 (11747572_a_at) / RFU HAMP (11756126_x_at) / Fold change /veh HAMP (11756126_x_at) / RFU RNFT2 (11725882_a_at) / Fold change /veh RNFT2 (11725882_a_at) / RFU NR4A2 (11747474_a_at) / Fold change /veh NR4A2 (11747474_a_at) / RFU ABCC12 (11746883_a_at) / Fold change /veh ABCC12 (11746883_a_at) / RFU TMEM136 (11760407_x_at) / Fold change /veh TMEM136 (11760407_x_at) / RFU CLDN22 /// WWC2 (11732394_at) / Fold change /veh CLDN22 /// WWC2 (11732394_at) / RFU HLA-DPB1 (11760878_x_at) / Fold change /veh HLA-DPB1 (11760878_x_at) / RFU SPINT1 (11716480_a_at) / Fold change /veh SPINT1 (11716480_a_at) / RFU GAP43 (11754022_s_at) / Fold change /veh GAP43 (11754022_s_at) / RFU A4GNT (11735810_at) / Fold change /veh A4GNT (11735810_at) / RFU PRB3 (11715151_x_at) / Fold change /veh PRB3 (11715151_x_at) / RFU TUBB4B (11761932_at) / Fold change /veh TUBB4B (11761932_at) / RFU CAPN14 (11732068_a_at) / Fold change /veh CAPN14 (11732068_a_at) / RFU TMCC2 (11721928_a_at) / Fold change /veh TMCC2 (11721928_a_at) / RFU IRGQ (11745062_a_at) / Fold change /veh IRGQ (11745062_a_at) / RFU FAM174B (11720279_a_at) / Fold change /veh FAM174B (11720279_a_at) / RFU TMPRSS4 (11748680_a_at) / Fold change /veh TMPRSS4 (11748680_a_at) / RFU FAM212B (11763350_a_at) / Fold change /veh FAM212B (11763350_a_at) / RFU PLEKHG5 (11743358_a_at) / Fold change /veh PLEKHG5 (11743358_a_at) / RFU ZSCAN30 (11745921_a_at) / Fold change /veh ZSCAN30 (11745921_a_at) / RFU CMKLR1 (11741424_a_at) / Fold change /veh CMKLR1 (11741424_a_at) / RFU LOC101060620 /// MAPK8IP1 (11723275_at) / Fold change /veh LOC101060620 /// MAPK8IP1 (11723275_at) / RFU SPTSSB (11747773_x_at) / Fold change /veh SPTSSB (11747773_x_at) / RFU PRSS12 (11739890_at) / Fold change /veh PRSS12 (11739890_at) / RFU BIN1 (11741810_x_at) / Fold change /veh BIN1 (11741810_x_at) / RFU WNT11 (11732464_a_at) / Fold change /veh WNT11 (11732464_a_at) / RFU C10orf10 (11716521_a_at) / Fold change /veh C10orf10 (11716521_a_at) / RFU C5orf56 (11738089_at) / Fold change /veh C5orf56 (11738089_at) / RFU CYB561 (11721691_x_at) / Fold change /veh CYB561 (11721691_x_at) / RFU ANKRD19P (11752326_a_at) / Fold change /veh ANKRD19P (11752326_a_at) / RFU OR2T12 /// OR2T33 /// OR2T8 (11738714_s_at) / Fold change /veh OR2T12 /// OR2T33 /// OR2T8 (11738714_s_at) / RFU VCAN (11748164_a_at) / Fold change /veh VCAN (11748164_a_at) / RFU JSRP1 (11732532_at) / Fold change /veh JSRP1 (11732532_at) / RFU KRTAP10-11 (11738290_x_at) / Fold change /veh KRTAP10-11 (11738290_x_at) / RFU MYO3A (11730013_a_at) / Fold change /veh MYO3A (11730013_a_at) / RFU EBF3 (11725865_a_at) / Fold change /veh EBF3 (11725865_a_at) / RFU CAMK2N1 (11719241_x_at) / Fold change /veh CAMK2N1 (11719241_x_at) / RFU C5orf56 (11738088_a_at) / Fold change /veh C5orf56 (11738088_a_at) / RFU OLFML3 (11715873_a_at) / Fold change /veh OLFML3 (11715873_a_at) / RFU LOC100653217 /// NTM (11731650_a_at) / Fold change /veh LOC100653217 /// NTM (11731650_a_at) / RFU MAPK11 (11762145_a_at) / Fold change /veh MAPK11 (11762145_a_at) / RFU FIZ1 (11724087_x_at) / Fold change /veh FIZ1 (11724087_x_at) / RFU OASL (11726364_x_at) / Fold change /veh OASL (11726364_x_at) / RFU SOX15 (11748057_x_at) / Fold change /veh SOX15 (11748057_x_at) / RFU CD79A (11719716_a_at) / Fold change /veh CD79A (11719716_a_at) / RFU HIST1H1D (11736915_at) / Fold change /veh HIST1H1D (11736915_at) / RFU CASKIN2 (11723855_a_at) / Fold change /veh CASKIN2 (11723855_a_at) / RFU LOC730098 (11760151_x_at) / Fold change /veh LOC730098 (11760151_x_at) / RFU OR4N2 (11742367_at) / Fold change /veh OR4N2 (11742367_at) / RFU PRRT2 (11749266_a_at) / Fold change /veh PRRT2 (11749266_a_at) / RFU SNX32 (11753110_a_at) / Fold change /veh SNX32 (11753110_a_at) / RFU CDHR5 (11726645_a_at) / Fold change /veh CDHR5 (11726645_a_at) / RFU RCAN1 (11760418_a_at) / Fold change /veh RCAN1 (11760418_a_at) / RFU FAM167A (11723789_a_at) / Fold change /veh FAM167A (11723789_a_at) / RFU FAM26E (11764081_at) / Fold change /veh FAM26E (11764081_at) / RFU ISYNA1 (11749810_s_at) / Fold change /veh ISYNA1 (11749810_s_at) / RFU ACY1 (11761880_at) / Fold change /veh ACY1 (11761880_at) / RFU 11764098_at / Fold change /veh 11764098_at / RFU SAMD14 (11745864_x_at) / Fold change /veh SAMD14 (11745864_x_at) / RFU NPB (11741838_a_at) / Fold change /veh NPB (11741838_a_at) / RFU TMPRSS6 (11731388_a_at) / Fold change /veh TMPRSS6 (11731388_a_at) / RFU KRTAP10-2 (11738614_at) / Fold change /veh KRTAP10-2 (11738614_at) / RFU ARHGAP8 /// PRR5-ARHGAP8 (11727945_x_at) / Fold change /veh ARHGAP8 /// PRR5-ARHGAP8 (11727945_x_at) / RFU KRTAP5-7 /// NADSYN1 (11734609_at) / Fold change /veh KRTAP5-7 /// NADSYN1 (11734609_at) / RFU RASL12 (11751679_a_at) / Fold change /veh RASL12 (11751679_a_at) / RFU CDKN2B (11736163_a_at) / Fold change /veh CDKN2B (11736163_a_at) / RFU PRF1 (11729649_at) / Fold change /veh PRF1 (11729649_at) / RFU, ZNF638 /// ZNF638-IT1 / Fold change vs veh, ZNF638 /// ZNF638-IT1 / RFU, PANK3 / Fold change vs veh, PANK3 / RFU, SH3YL1 / Fold change vs veh, SH3YL1 / RFU, ZEB2 / Fold change vs veh, ZEB2 / RFU, NRIP1 / Fold change vs veh, NRIP1 / RFU, PTTG1IP / Fold change vs veh, PTTG1IP / RFU, CAPN2 / Fold change vs veh, CAPN2 / RFU, MED14 / Fold change vs veh, MED14 / RFU, SNORA58 / Fold change vs veh, SNORA58 / RFU, C1orf63 / Fold change vs veh, C1orf63 / RFU, LRRFIP1 / Fold change vs veh, LRRFIP1 / RFU, NDUFAF7 / Fold change vs veh, NDUFAF7 / RFU, SLC12A2 / Fold change vs veh, SLC12A2 / RFU, IBTK / Fold change vs veh, IBTK / RFU, ESF1 / Fold change vs veh, ESF1 / Fold change vs veh, TMEM50B / RFU, TAOK1 / Fold change vs veh, TAOK1 / RFU, ACBD3 / Fold change vs veh, ACBD3 / RFU, TMA16 / Fold change vs veh, TMA16 / RFU, RWDD3 / Fold change vs veh, RWDD3 / RFU, BCAT1 / Fold change vs veh, BCAT1 / RFU, EDEM3 / Fold change vs veh, EDEM3 / RFU, TMEM33 / Fold change vs veh, TMEM33 / RFU, WDR75 / Fold change vs veh, WDR75 / RFU, AHCTF1 / Fold change vs veh, AHCTF1 / RFU, TFRC / Fold change vs veh, TFRC / RFU, ZDHHC17 / Fold change vs veh, ZDHHC17 / RFU, NOM1 / Fold change vs veh, NOM1 / RFU, ARL8B / Fold change vs veh, ARL8B / RFU, ZBTB11 / Fold change vs veh, ZBTB11 / RFU, TAMM41 / Fold change vs veh, TAMM41 / RFU, KIAA1704 /// LOC100996395 / Fold change vs veh, KIAA1704 /// LOC100996395 / RFU, ING1 / Fold change vs veh, ING1 / RFU, TRMT61B / Fold change vs veh, TRMT61B / RFU, FUBP3 / Fold change vs veh, FUBP3 / RFU, TP53 / Fold change vs veh, TP53 / RFU, TNKS2 / Fold change vs veh, TNKS2 / RFU, ZFP14 / Fold change vs veh, ZFP14 / RFU, ACTR2 / Fold change vs veh, ACTR2 / RFU, PPP3R1 / Fold change vs veh, PPP3R1 / RFU, PIK3R1 / Fold change vs veh, PIK3R1 / RFU, HNRNPA1 / Fold change vs veh, HNRNPA1 / RFU, RNF170 / Fold change vs veh, RNF170 / RFU, ZNF28 / Fold change vs veh, ZNF28 / RFU, RNGTT / Fold change vs veh, RNGTT / RFU, OGT / Fold change vs veh, OGT / RFU, BRD1 / Fold change vs veh, BRD1 / RFU, MARS / Fold change vs veh, MARS / RFU, ZNF655 / Fold change vs veh, ZNF655 / RFU, FAHD1 / Fold change vs veh, FAHD1 / RFU, BDP1 / Fold change vs veh, BDP1 / RFU, LRRCC1 / Fold change vs veh, LRRCC1 / RFU, ARID1A / Fold change vs veh, ARID1A / RFU, ZNF146 / Fold change vs veh, ZNF146 / RFU, ZNF330 / Fold change vs veh, ZNF330 / RFU, GPN3 / Fold change vs veh, GPN3 / RFU, C9orf123 / Fold change vs veh, C9orf123 / RFU, N4BP2L2 / Fold change vs veh, N4BP2L2 / RFU, ARFIP1 / Fold change vs veh, ARFIP1 / RFU, FAM179B / Fold change vs veh, FAM179B / RFU, BCL10 / Fold change vs veh, BCL10 / RFU, UHRF1BP1L / Fold change vs veh, UHRF1BP1L / RFU, BET1 / Fold change vs veh, BET1 / RFU, CNOT2 / Fold change vs veh, CNOT2 / RFU, ZNF268 / Fold change vs veh, ZNF268 / Fold change vs veh, ZNF507 / RFU, DGCR2 / Fold change vs veh, DGCR2 / RFU, WDSUB1 / Fold change vs veh, WDSUB1 / Fold change vs veh, HSP90B1 /// MIR3652 / RFU, ADSS / Fold change vs veh, ADSS / RFU, GK / Fold change vs veh, GK / RFU, ZNF148 / Fold change vs veh, ZNF148 / RFU, TAF9 / Fold change vs veh, TAF9 / RFU, SLC1A5 / Fold change vs veh, SLC1A5 / RFU, SLMO2 / Fold change vs veh, SLMO2 / RFU, ABCC4 / Fold change vs veh, ABCC4 / RFU, LOC101060439 /// RAP1B / Fold change vs veh, LOC101060439 /// RAP1B / RFU, RFX7 / Fold change vs veh, RFX7 / RFU, GTPBP10 / Fold change vs veh, GTPBP10 / RFU, CNEP1R1 / Fold change vs veh, CNEP1R1 / RFU, BIVM-ERCC5 /// ERCC5 / Fold change vs veh, BIVM-ERCC5 /// ERCC5 / RFU, ILF3 / Fold change vs veh, ILF3 / RFU 11762660_at / Fold change /veh 11762660_at / RFU VCAN (11757783_s_at) / Fold change /veh VCAN (11757783_s_at) / RFU DDX43 (11728927_at) / Fold change /veh DDX43 (11728927_at) / RFU KRT8 (11758188_x_at) / Fold change /veh KRT8 (11758188_x_at) / RFU NKD1 (11759106_at) / Fold change /veh NKD1 (11759106_at) / RFU SRD5A1 (11742802_a_at) / Fold change /veh SRD5A1 (11742802_a_at) / RFU TPSAB1 /// TPSB2 (11721975_s_at) / Fold change /veh TPSAB1 /// TPSB2 (11721975_s_at) / RFU GSTM3 (11746129_a_at) / Fold change /veh GSTM3 (11746129_a_at) / RFU IL23R (11737362_x_at) / Fold change /veh IL23R (11737362_x_at) / RFU TMEM51 (11727254_a_at) / Fold change /veh TMEM51 (11727254_a_at) / RFU PIWIL2 (11732686_x_at) / Fold change /veh PIWIL2 (11732686_x_at) / RFU ORM1 (11744905_x_at) / Fold change /veh ORM1 (11744905_x_at) / RFU CCDC152 (11743942_at) / Fold change /veh CCDC152 (11743942_at) / RFU ECM1 (11717891_a_at) / Fold change /veh ECM1 (11717891_a_at) / RFU IL23R (11748794_a_at) / Fold change /veh IL23R (11748794_a_at) / RFU TNFAIP8L3 (11732012_x_at) / Fold change /veh TNFAIP8L3 (11732012_x_at) / RFU MBOAT4 (11741988_at) / Fold change /veh MBOAT4 (11741988_at) / RFU 11764193_at / Fold change /veh 11764193_at / RFU TMEM53 (11763286_at) / Fold change /veh TMEM53 (11763286_at) / RFU MAGEB2 (11727129_at) / Fold change /veh MAGEB2 (11727129_at) / RFU TMEM200A (11744735_a_at) / Fold change /veh TMEM200A (11744735_a_at) / RFU CCDC152 (11751479_a_at) / Fold change /veh CCDC152 (11751479_a_at) / RFU FAM211A (11726209_a_at) / Fold change /veh FAM211A (11726209_a_at) / RFU RGS16 (11746705_a_at) / Fold change /veh RGS16 (11746705_a_at) / RFU VCAN (11755009_s_at) / Fold change /veh VCAN (11755009_s_at) / RFU RHOB (11743442_s_at) / Fold change /veh RHOB (11743442_s_at) / RFU RGS16 (11720943_a_at) / Fold change /veh RGS16 (11720943_a_at) / RFU RGS16 (11720944_at) / Fold change /veh RGS16 (11720944_at) / RFU, VPS4B / Fold change vs veh, VPS4B / RFU, CREB1 / Fold change vs veh, CREB1 / RFU, DNAJC13 / Fold change vs veh, DNAJC13 / RFU, GNAQ / Fold change vs veh, GNAQ / RFU, CDK5R1 / Fold change vs veh, CDK5R1 / RFU, ZRANB3 / Fold change vs veh, ZRANB3 / RFU, CUL4A / Fold change vs veh, CUL4A / RFU, CCNY / Fold change vs veh, CCNY / RFU, UFL1 / Fold change vs veh, UFL1 / RFU, COG3 / Fold change vs veh, COG3 / RFU, DIAPH2 / Fold change vs veh, DIAPH2 / RFU, SKA2 / Fold change vs veh, SKA2 / RFU, AFF3 / Fold change vs veh, AFF3 / RFU, LMF1 / Fold change vs veh, LMF1 / RFU, IPO11 / Fold change vs veh, IPO11 / RFU, DFFB / Fold change vs veh, DFFB / RFU, FOXP1 / Fold change vs veh, FOXP1 / RFU, CARD8 / Fold change vs veh, CARD8 / RFU, STRN3 / Fold change vs veh, STRN3 / RFU, ADK / Fold change vs veh, ADK / RFU, RASSF2 / Fold change vs veh, RASSF2 / RFU, WIPF1 / Fold change vs veh, WIPF1 / RFU, LARP1B / Fold change vs veh, LARP1B / RFU, RASA1 / Fold change vs veh, RASA1 / RFU, RB1 / Fold change vs veh, RB1 / RFU, PPFIA1 / Fold change vs veh, PPFIA1 / RFU, MAT2A / Fold change vs veh, MAT2A / RFU, CCT5 / Fold change vs veh, CCT5 / RFU, WDR92 / Fold change vs veh, WDR92 / RFU, CUX1 / Fold change vs veh, CUX1 / RFU, TTC7A / Fold change vs veh, TTC7A / RFU, TMEM135 / Fold change vs veh, TMEM135 / RFU, DEPTOR / Fold change vs veh, DEPTOR / RFU, CPM / Fold change vs veh, CPM / RFU, DNAJB6 / Fold change vs veh, DNAJB6 / RFU, CACNA2D3 / Fold change vs veh, CACNA2D3 / RFU, DTX4 / Fold change vs veh, DTX4 / RFU, TFCP2 / Fold change vs veh, TFCP2 / RFU, GMCL1 /// GMCL1P1 / Fold change vs veh, GMCL1 /// GMCL1P1 / RFU, AEBP2 / Fold change vs veh, AEBP2 / RFU, SNHG1 /// SNORD22 /// SNORD25 /// SNORD26 /// SNORD27 /// SNORD28 /// SNORD29 /// SNORD31 / Fold change vs veh, SNHG1 /// SNORD22 /// SNORD25 /// SNORD26 /// SNORD27 /// SNORD28 /// SNORD29 /// SNORD31 / Fold change (Aza/veh), C12orf56 (ProbeSet 11735607_a_at) / Fold change (ACY-1035/veh), C12orf56 (ProbeSet 11735607_a_at) / Fold change (Aza/veh), FGFR1OP (ProbeSet 11751329_s_at) / Fold change (ACY-1035/veh), FGFR1OP (ProbeSet 11751329_s_at) / Fold change (Aza/veh), VPS36 (ProbeSet 11739960_a_at) / Fold change (ACY-1035/veh), VPS36 (ProbeSet 11739960_a_at) / RFU SYPL1 (11715823_x_at) / Fold change /veh SYPL1 (11715823_x_at) / RFU IGFBP7 (11715501_s_at) / Fold change /veh IGFBP7 (11715501_s_at) / RFU REEP3 (11722064_at) / Fold change /veh REEP3 (11722064_at) / RFU IGLL1 (11728026_x_at) / Fold change /veh IGLL1 (11728026_x_at): dose or concentration left out as unconfirmed. To be noted: ProbeSet 11717308_a_at; LIST B.

The text below walks through data of article PMC5218480 (PLoS ONE, 2017).

As for `Nc1ncn([C@@H]2O[C@H](CO)[C@@H](O)[C@H]2O)c(=O)n1` [azacitidine], the “RFU, WDR75” value was 348.11 RFU.
